Test results reported in patent US20250179047A1, “5-[7-(3,4-DIHYDRO-1H-ISOQUINOLINE-2-CARBONYL)-1,2,3,4 TETRAHYDROISOQUINOLIN-6-YL]-1H-PYRROLE-3-CARBOXAMIDE DERIVATIVES, PHARMACEUTICAL COMPOSITIONS CONTAINING THEM AND THEIR USES AS PRO-APOPTOTIC AGENTS” (LES LABORATOIRES SERVIER, priority 2022, published 2025).

Key:
BCLXL WT = BCLXL WT (Homo sapiens (Human), UniProt Q07817); experiment: TR-FRET competitive binding assay, BCLXL WT; conditions: for Ki: BCLXL WT, Ki determined from IC50, read-out: TR_FRET EKI BclxL; for TR_FRET EKI BCLxL/WT selectivty ratio: ratio Ki BCLxL / Ki BCL2 WT
Method in brief: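 Terbium-labelled N-terminal Halo-fusion BCL2 or BCLXL (E. coli), 0.5 nM, competed against fluorescein-labelled PUMA peptide (2 or 20 nM) for 2 h at 23° C in 50 mM Hepes pH 7.5, 150 mM NaCl, 5% DMSO. TR-FRET 520/495 nm ratio gave IC50 by four-parameter fit; Ki derived from IC50.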

KMS12PE Bcl2 F104I = experiment: In vitro cytotoxicity CellTiterGlo 72 h, KMS12PE Bcl2 F104I; format: cell-based; conditions: Homo sapiens, KMS-12-PE, read-out: C50 nM, KMS12PE Bcl2 F104I
Description: (§1) KMS-12-PE (ACC 606) were purchased from the Leibniz-Institute DSMZ (Braunschweig, Germany) and were grown at 37° C. in a humidified atmosphere with 5% CO2 in media recommended by the suppliers. Lentiviral particles containing Bcl-2 wild type (also named “Bcl2 WT”), Bcl-2 mutated on G101V (also named “Bcl2 G101V”), Bcl-2 mutated on D103Y (also named “Bcl2 D103Y”), Bcl-2 mutated on D103V (also named “Bcl2 D103V”), Bcl-2 mutated on D103E (also named “Bcl2 D103E”), Bcl-2 mutated on F104I (also named “Bcl2 F104I”), Bcl-2 mutated on F104L (also named “Bcl2 F104L”), Bcl-2 mutated on D111A (also named “Bcl2 D111A”), Bcl-2 mutated on A113G (also named “Bcl2 A113G”), Bcl-2 mutated on R129L (also named “Bcl2 R129L”), Bcl-2 mutated on V156D (also named “Bcl2 V156D”) were cloned into pcLV-CMV-DEST-IRES-TagRFP. Lentiviral particles (1×10^6) were mixed with Polybrene at 8 μg/ml and transduced by spinoculation for 1 h at 32° C. and incubated overnight. After 8 days, TagRFP positive-cells were sorted by FACS. BCL2 expression was monitored by immunoblotting using anti-Flag and anti-BCL2 antibodies. Cells were seeded into 96-wells plates and treated with 1:3.16 serial dilution of compounds (9 different concentrations). Cell viability was assessed using CellTiterGlo reagent following treatment for 72 h. Results were normalized to the viability of cells without compounds (control wells). The C50 values were calculated using nonlinear regression algorithms in XCell software.

KMS12PE Bcl2 F104L = experiment: In vitro cytotoxicity CellTiterGlo 72 h, KMS12PE Bcl2 F104L; format: cell-based; conditions: Homo sapiens, KMS-12-PE, read-out: C50 nM, KMS12PE Bcl2 F104L
Description: as §1

KMS12PE Bcl2 D103V = experiment: In vitro cytotoxicity CellTiterGlo 72 h, KMS12PE Bcl2 D103V; format: cell-based; conditions: Homo sapiens, KMS-12-PE, read-out: C50 nM, KMS12PE Bcl2 D103V
Description: as §1

KMS12PE Bcl2 D111A = experiment: In vitro cytotoxicity CellTiterGlo 72 h, KMS12PE Bcl2 D111A; format: cell-based; conditions: Homo sapiens, KMS-12-PE, read-out: C50 nM, KMS12PE Bcl2 D111A
Description: as §1

KMS12PE = experiment: In vitro cytotoxicity CellTiterGlo 72 h, KMS12PE; format: cell-based; conditions: Homo sapiens, KMS-12-PE, read-out: C50 nM, KMS12PE
Description: as §1

Chain of BCLXL WT (Q07817 other isoform, or with tags, fused parts or gaps): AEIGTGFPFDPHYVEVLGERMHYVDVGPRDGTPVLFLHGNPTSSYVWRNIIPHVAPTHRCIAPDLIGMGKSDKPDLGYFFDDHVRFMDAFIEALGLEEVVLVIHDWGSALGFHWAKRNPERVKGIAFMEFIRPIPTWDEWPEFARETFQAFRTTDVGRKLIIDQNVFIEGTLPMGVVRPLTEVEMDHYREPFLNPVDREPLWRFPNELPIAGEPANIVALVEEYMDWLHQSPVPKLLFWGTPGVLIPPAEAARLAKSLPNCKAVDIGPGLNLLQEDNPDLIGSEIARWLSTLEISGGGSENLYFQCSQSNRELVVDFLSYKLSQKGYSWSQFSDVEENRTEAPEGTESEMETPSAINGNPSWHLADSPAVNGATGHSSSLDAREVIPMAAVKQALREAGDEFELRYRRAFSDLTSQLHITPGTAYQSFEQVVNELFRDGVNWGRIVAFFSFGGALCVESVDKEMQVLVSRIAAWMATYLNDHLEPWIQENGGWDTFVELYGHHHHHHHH

Row | SMILES | Ki (BCLXL WT) | TR_FRET EKI BCLxL/WT selectivty ratio (BCLXL WT) | IC50 (KMS12PE Bcl2 F104I) | IC50 (KMS12PE Bcl2 F104L) | IC50 (KMS12PE Bcl2 D103V) | IC50 (KMS12PE Bcl2 D111A) | IC50 (KMS12PE)
1 | COC[C@@H]1Cc2ccccc2CN1C(=O)c1cc2c(cc1-c1cc(C(=O)N(c3ccc(O)cc3)c3cc(C#N)n(C)c3C)c(C)n1C)CCN(C(=O)Cc1ccc(OCCC3CCOCC3)cc1F)C2 [Example 52, N-(5-cyano-1,2-dimethylpyrrol-3-yl)-5-[2-(2-{2-fluoro-4-[2-(oxan-4-yl)ethoxy]phenyl}acetyl)-7-{[(3S)-3-(methoxymethyl)-3,4-dihydro-1H-isoquinolin-2-yl]carbonyl}-3,4-dihydro-1H-isoquinolin-6-yl]-N-(4-hydroxyphenyl)-1,2-dimethylpyrrole-3-carboxamide] | 3 nM | 15.2 | 11.1 nM | 11.1 nM | 2.78 nM | 1.21 nM | 0.21 nM
2 | Cc1c(N(C(=O)c2cc(-c3cc4c(cc3C(=O)N3Cc5ccccc5C[C@H]3C)CN(C(=O)Cc3ccc(OCCN5CCC(F)CC5)cc3)CC4)n(C)c2C)c2ccc(O)cc2)cc(C#N)n1C [Example 53, N-(5-cyano-1,2-dimethyl-1H-pyrrol-3-yl)-5-[2-(2-{4-[2-(4-fluoropiperidin-1-yl)ethoxy]phenyl}acetyl)-7-[(3R)-3-methyl-1,2,3,4-tetrahydroisoquinoline-2-carbonyl]-1,2,3,4-tetrahydroisoquinolin-6-yl]-N-(4-hydroxyphenyl)-1,2-dimethyl-1H-pyrrole-3-carboxamide] | 1.2 nM | 18.5 | 72.7 nM | 25.5 nM | 5.38 nM | 2.19 nM | 0.35 nM
3 | Cc1c(N(C(=O)c2cc(-c3cc4c(cc3C(=O)N3Cc5ccccc5C[C@H]3C)CN(C(=O)Cc3ccc(OCCN5CCSCC5)cc3)CC4)n(C)c2C)c2ccc(O)cc2)cc(C#N)n1C [Example 55, N-(5-cyano-1,2-dimethyl-1H-pyrrol-3-yl)-N-(4-hydroxyphenyl)-1,2-dimethyl-5-{7-[(3R)-3-methyl-1,2,3,4-tetrahydroisoquinoline-2-carbonyl]-2-(2-{4-[2-(thiomorpholin-4-yl)ethoxy]phenyl}acetyl)-1,2,3,4-tetrahydroisoquinolin-6-yl}-1H-pyrrole-3-carboxamide] | 2.6 nM | 26.5 | 57.8 nM | 19.7 nM | 4.48 nM | 2.2 nM | 0.33 nM
4 | Cc1c(N(C(=O)c2cc(-c3cc4c(cc3C(=O)N3Cc5ccccc5C[C@H]3CN3CCCCC3)CN(C(=O)Cc3ccc(OCCC5CCOCC5)cc3)CC4)n(C)c2C)c2ccc(O)cc2)cc(C#N)n1C [Example 66, N-(5-cyano-1,2-dimethylpyrrol-3-yl)-N-(4-hydroxyphenyl)-1,2-dimethyl-5-[2-(2-{4-[2-(oxan-4-yl)ethoxy]phenyl}acetyl)-7-{[(3S)-3-(piperidin-1-ylmethyl)-3,4-dihydro-1H-isoquinolin-2-yl]carbonyl}-3,4-dihydro-1H-isoquinolin-6-yl]pyrrole-3-carboxamide] | 4 nM | 47.6 | 65.2 nM | 24.1 nM | 2.22 nM | 1.57 nM | 0.2 nM
5 | Cc1c(C(=O)N(c2ccc(O)cc2)c2cc(C#N)n(C(F)F)c2C)cc(-c2cc3c(cc2C(=O)N2Cc4ccccc4C[C@H]2CN2CCCCC2)CN(C(=O)Cc2ccc(OCCN4CCOCC4)cc2)CC3)n1C [Example 77] | 8 nM | 135.6 | 156 nM | 31.9 nM | 6.28 nM | 3.64 nM | 0.42 nM
6 | Cc1c(C(=O)N(c2ccc(O)cc2)c2cc(C#N)n(C(F)F)c2C)cc(-c2cc3c(cc2C(=O)N2Cc4ccccc4C[C@H]2CN2CCCCC2)CN(C(=O)Cc2ccc(OCCN4CCOCC4)cc2F)CC3)n1C [Example 78, N-[5-cyano-1-(difluoromethyl)-2-methylpyrrol-3-yl]-5-[2-(2-{2-fluoro-4-[2-(morpholin-4-yl)ethoxy]phenyl}acetyl)-7-{[(3S)-3-(piperidin-1-ylmethyl)-3,4-dihydro-1H-isoquinolin-2-yl]carbonyl}-3,4-dihydro-1H-isoquinolin-6-yl]-N-(4-hydroxyphenyl)-1,2-dimethylpyrrole-3-carboxamide] | 7.1 nM | 134.0 | 21.8 nM | 8.71 nM | 1.59 nM | 1.14 nM | 0.12 nM
7 | Cc1c(N(C(=O)c2cc(-c3cc4c(cc3C(=O)N3Cc5ccccc5C[C@H]3CN3CCC[C@H](C)C3)CN(C(=O)Cc3ccc(OCCN5CCOCC5)cc3F)CC4)n(C)c2C)c2ccc(O)cc2)cc(C#N)n1C [Example 107] | 7.8 nM | 87.6 | 23.6 nM | 7.04 nM | 1.94 nM | 1.36 nM | 0.15 nM
